In this test the target is Growth hormone secretagogue receptor type 1 (Homo sapiens) (UniProt Q92847). Put plainly: Displacement of [125I-His9]-ghrelin from human GRLN receptor by radioligand binding assay. On the technique in general: Loss of bound radioactivity is the signal in a displacement assay; it reports binding, not function.

Molecules are shown by their SMILES. pKi: −log10 of the molar value.

Usually pKi stands for the negative decadic logarithm of the Ki, by convention in mol/L. A higher pKi goes with a low Ki.

Sequence of Growth hormone secretagogue receptor type 1 (Homo sapiens) (Q92847 whole entry, looked up): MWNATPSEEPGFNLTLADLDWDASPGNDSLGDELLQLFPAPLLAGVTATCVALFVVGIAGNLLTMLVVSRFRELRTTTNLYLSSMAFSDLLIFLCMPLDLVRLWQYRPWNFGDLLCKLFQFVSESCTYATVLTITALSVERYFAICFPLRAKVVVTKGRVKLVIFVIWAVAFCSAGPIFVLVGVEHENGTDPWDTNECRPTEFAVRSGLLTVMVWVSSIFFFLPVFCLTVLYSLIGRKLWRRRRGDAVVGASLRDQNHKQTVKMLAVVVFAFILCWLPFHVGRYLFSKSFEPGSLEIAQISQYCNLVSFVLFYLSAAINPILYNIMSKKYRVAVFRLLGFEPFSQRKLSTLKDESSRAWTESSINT

`CC[C@H](C)[C@@H]1NCCCCCCCNC(=O)[C@@H](Cc2ccccc2)NC(=O)[C@@H](C)N(C)C1=O` showed a pKi below 5.00.

`CN1CC(=O)N[C@H](Cc2ccccc2)C(=O)NCCCc2ccccc2OCCN[C@@H](CO)C1=O` had a pKi below 5.00.

Turning to `CN1CC(=O)N[C@H](Cc2ccccc2)C(=O)NCCCc2ccccc2OCCN[C@@H](CCC(=O)O)C1=O`, the negative logarithm of the Ki (pKi) was below 5.00.

With `CCC[C@@H]1NCCOc2ccccc2CCCNC(=O)[C@@H](CO)NC(=O)CN(C)C1=O`, the pKi was below 5.00.

`CCC[C@@H]1NCCOc2ccccc2CCCNC(=O)[C@@H](CCC(=O)O)NC(=O)CN(C)C1=O` had a pKi below 5.00.

With `CCC[C@@H]1NCCOc2ccccc2CCCNC(=O)[C@@H](CCCN)NC(=O)CN(C)C1=O`, the pKi is below 5.00.

The values above are taken from BindingDB's records for doi:10.1021/jm2007062 (Tranzyme Pharma, 2011).
